# Read-outs that look alike come from different tables or passages of the source.
# Key:
# [1] = Crystallinity studies by x-ray diffraction (WAXS in transmission); format: physicochemical
# Source text: FIG. 2 crystallinity studies (WAXS in transmission) of the GGE active ingredient in the C16 spider silk protein formulations obtained by electrospinning compared to the pure substances (GGE or C16 powder);
# FIG. 6 crystallinity studies (WAXS in transmission) of the clotrimazole active ingredient in the C16 spider silk protein formulations obtained by electrospinning compared to pure clotrimazole;
# FIG. 9 crystallinity studies (WAXS in transmission) of the metazachlor active ingredient in the C16 spider silk protein formulations obtained by electrospinning compared to pure metazachlor;
# FIG. 12 crystallinity studies (WAXS in transmission) of the Uvinul A+ active ingredient in the C16 spider silk protein formulations obtained by electrospinning compared to Uvinul A+ pure substance;
# FIG. 16 crystallinity studies (WAXS in transmission) of the Uvinul A+ active ingredient in the R16 protein nonwoven (A) and S16 protein nonwoven (B) obtained by electrospinning compared to pure Uvinul A+;
# [2] = cited from earlier work
structure (smiles),measurement,setting,value
Cc1cccc(C)c1N(Cn1cccn1)C(=O)CCl [metazachlor],crystallinity of the active ingredient in x-ray diffraction,[1],significant crystalline proportions
NC(=O)N1c2ccccc2C=Cc2ccccc21 [Carbamazipine],Solubility in water,[2]; RT,0.9451 g/L
Clc1ccccc1C(c1ccccc1)(c1ccccc1)n1ccnc1 [Clotrimazole],Solubility in water,[2]; 25° C.,<0.01 g/L
